Results taken from patent US20240383954A1, “PEPTIDE INHIBITORS OF INTERLEUKIN-23 RECEPTOR AND THEIR USE TO TREAT INFLAMMATORY DISEASES” (Janssen Biotech, Inc., priority 2020, published 2024).
Starred links: 1 amine or outer side, 2 acyl side, 3 side chain; linkers in the order of their positions; H or OH if unused. Positions of bridges follow the written chain, without caps; N, C: chain ends. Non-standard residues stand in square brackets, D forms with d. Residues, ends and D or L forms follow the SMILES beside them. Trp(7-Me) = Cc1cccc2c(C[C@H](N)C(=O)O)c[nH]c12; Abu(4-yl) = O=C([C@H](CC[*:3])N[*:1])[*:2]; 2Nal = N[C@@H](Cc1ccc2ccccc2c1)C(=O)O; AEF = NCCOc1ccc(C[C@H](N)C(=O)O)cc1; αMeF = C[C@](N)(Cc1ccccc1)C(=O)O; αMeE = C[C@](N)(CCC(=O)O)C(=O)O; Pen = CC(C)(S)[C@H](N)C(=O)O; αMeK = C[C@](N)(CCCCN)C(=O)O; αMeC = C[C@](N)(CS)C(=O)O; Ac5c = NC1(C(=O)O)CCCC1; Thp = NC1(C(=O)O)CCOCC1; Ac3c = NC1(C(=O)O)CC1; Aib = CC(C)(N)C(=O)O

Target: IL-23R (Homo sapiens, UniProt Q5VWK5)
Assay: cell-based
Conditions: PBMC pSTAT3 IC50 (nM), PBMCs from healthy donors, IL-23 5 ng/mL, 30 minutes, phosphorylated STAT3
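Note: cryopreserved PBMCs stimulated at 37 °C in 5% CO2, then lysed, with phosphorylated STAT3 quantified in lysates using a phospho-STAT panel kit.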

IL-23R, sequence (Q5VWK5 24-629): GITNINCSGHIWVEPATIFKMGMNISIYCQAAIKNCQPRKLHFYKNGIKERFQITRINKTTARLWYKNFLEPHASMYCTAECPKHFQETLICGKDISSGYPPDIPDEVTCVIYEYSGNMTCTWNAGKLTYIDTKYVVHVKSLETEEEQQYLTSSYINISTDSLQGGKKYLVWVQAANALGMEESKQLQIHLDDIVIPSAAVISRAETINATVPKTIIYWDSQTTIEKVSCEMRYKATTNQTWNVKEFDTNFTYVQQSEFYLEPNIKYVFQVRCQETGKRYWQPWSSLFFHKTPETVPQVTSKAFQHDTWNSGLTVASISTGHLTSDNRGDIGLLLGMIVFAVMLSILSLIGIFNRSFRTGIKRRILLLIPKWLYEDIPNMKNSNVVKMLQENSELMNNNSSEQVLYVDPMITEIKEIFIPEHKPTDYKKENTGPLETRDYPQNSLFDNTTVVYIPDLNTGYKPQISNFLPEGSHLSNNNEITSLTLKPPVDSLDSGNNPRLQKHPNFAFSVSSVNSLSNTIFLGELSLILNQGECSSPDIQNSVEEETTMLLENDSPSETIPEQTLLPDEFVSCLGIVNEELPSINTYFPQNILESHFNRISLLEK
Description: Cryopreserved peripheral blood mononuclear cells (PBMCs) from healthy donors were thawed and washed twice in ImmunoCult-XF T cell expansion medium (XF-TCEM) supplemented with CTL anti-aggregate wash. […] The cells were stimulated with cytokine for 30 minutes at 37° C. in 5% CO2, transferred onto ice for 10 minutes, and lysed. Cell lysates were stored at −80° C. until phosphorylated STAT3 was measured using the phospho-STAT panel kit (Meso Scale Discovery, K15202D).

Row | Compound | IC50 [nM]
1 | COc1ccc(C[C@H](NC(=O)[C@@H]2CSCC[C@H](NC(=O)[C@@H](CCCNC(=N)N)NC(=O)Cn3cc(CCCF)nn3)C(=O)N[C@@H](CCC(N)=O)C(=O)N[C@@H]([C@@H](C)O)C(=O)N[C@@H](Cc3c[nH]c4ccccc34)C(=O)N[C@@H](CCC(N)=O)C(=O)N2)C(=O)N[C@@H](Cc2ccc3ccccc3c2)C(=O)NC2(C(=O)N[C@@H](CCC(=O)O)C(=O)N[C@@H](CC(N)=O)C(=O)NC3(C(N)=O)CCOCC3)CCOCC2)cc1 [Compound 25, FPrpTriazoleMe_Acid-[(D)Arg]-[Abu]-Q-T-W-Q-[Cys]-[Phe(4-OMe)]-[2-Nal]-[THP]-E-N-[THP]-NH2] | 21
2 | CC(=O)NCCCC[C@@H]1NC(=O)[C@H](Cc2c[nH]c3c(C)cccc23)NC(=O)[C@H]([C@@H](C)O)NC(=O)[C@H](CC(N)=O)NC(=O)[C@@H](NC(C)=O)CSSC[C@@](C)(C(=O)N[C@@H](Cc2ccc(OCCN)cc2)C(=O)N[C@@H](Cc2ccc3ccccc3c2)C(=O)N[C@@](C)(CCCCN)C(=O)N[C@@H](CCCCNC(C)=O)C(=O)N[C@@H](CC(N)=O)C(=O)NC2(C(N)=O)CCOCC2)NC1=O [Compound 117, Ac-[Cys]-N-T-[W(7-Me)]-[Lys(Ac)]-[aMeCys]-Phe[4-(2-aminoethoxy)]-[2-Nal]-[a-MeLys]-[Lys(Ac)]-N-[THP]-NH2] | 7.1
3 | CC(=O)N[C@H](CCCNC(=N)N)C(=O)N[C@H]1CCSC[C@@H](C(=O)N[C@@H](Cc2ccc(OCCN)cc2)C(=O)N[C@@H](Cc2ccc3ccccc3c2)C(=O)NC2(C(=O)N[C@@H](CCC(N)=O)C(=O)N[C@@H](CC(N)=O)C(=O)N[C@@](C)(Cc3ccccc3)C(N)=O)CCOCC2)NC(=O)[C@H](CCC(N)=O)NC(=O)[C@H](Cc2c[nH]c3ccccc23)NC(=O)[C@H]([C@@H](C)O)NC(=O)[C@H](CCC(N)=O)NC1=O [Compound 30, Ac-[(D)Arg]-[Abu]-Q-T-W-Q-[Cys]-Phe[4-(2-aminoethoxy)]-[2-Nal]-[THP]-Q-N-[a-MePhe]-NH2] | 25
4 | CC(=O)NCCCC[C@@H]1NC(=O)[C@H](Cc2c[nH]c3c(C)cccc23)NC(=O)[C@H]([C@@H](C)O)NC(=O)[C@H](CC(N)=O)NC(=O)[C@@H](NC(=O)[C@@H](CCCNC(=N)N)NC(C)=O)C(C)(C)SSC(C)(C)[C@@H](C(=O)N[C@@H](Cc2ccc(OCCN)cc2)C(=O)N[C@@H](Cc2ccc3ccccc3c2)C(=O)NC2(C(=O)N[C@@H](CCC(=O)O)C(=O)N[C@@H](CC(N)=O)C(=O)N[C@@](C)(Cc3ccccc3)C(N)=O)CCOCC2)NC1=O [Compound 77, Ac-[(D)Arg]-[Pen]-N-T-[W(7-Me)]-[Lys(Ac)]-[Pen]-Phe[4-(2-aminoethoxy)]-[2-Nal]-[THP]-E-N-[a-MePhe]-NH2] (Ac-[dR][Pen]NT[Trp(7-Me)]K(Ac)[Pen][AEF][2Nal][Thp]EN[αMeF]-NH2; disulfide 2-7) | 6.4
5 | CC(=O)N[C@H](CCCNC(=N)N)C(=O)N[C@H]1CCSC[C@@H](C(=O)N[C@@H](Cc2ccc(OCCN)cc2)C(=O)N[C@@H](Cc2ccc3ccccc3c2)C(=O)NC2(C(=O)N[C@@](C)(CCC(=O)O)C(=O)N[C@@H](CC(N)=O)C(=O)N[C@@](C)(Cc3ccc(O)cc3)C(N)=O)CCOCC2)NC(=O)[C@H](CCC(N)=O)NC(=O)[C@H](Cc2c[nH]c3ccccc23)NC(=O)[C@H]([C@@H](C)O)NC(=O)[C@H](CCC(N)=O)NC1=O [Compound 44, Ac-[(D)Arg]-[Abu]-Q-T-W-Q-[Cys]-Phe[4-(2-aminoethoxy)]-[2-Nal]-[THP]-[aMeGlu]-N-[aMeTyr]-NH2] | 9.3
6 | CC(=O)NCCCC[C@@H]1NC(=O)[C@H](Cc2c[nH]c3ccccc23)NC(=O)[C@H]([C@@H](C)O)NC(=O)[C@H](CC(N)=O)NC(=O)[C@@H](NC(=O)[C@@H](CCCNC(=N)N)NC(C)=O)C(C)(C)SSC(C)(C)[C@@H](C(=O)N[C@@H](Cc2ccc(OCCN)cc2)C(=O)N[C@@H](Cc2ccc3ccccc3c2)C(=O)NC2(C(=O)N[C@@H](CCC(=O)O)C(=O)N[C@@H](CC(N)=O)C(=O)NC3(C(N)=O)CCOCC3)CCOCC2)NC1=O [Compound 105, Ac-[(D)Arg]-[Pen]-N-T-W-[Lys(Ac)]-[Pen]-Phe[4-(2-aminoethoxy)]-[2-Nal]-[THP]-E-N-[THP]-NH2] (Ac-[dR][Pen]NTWK(Ac)[Pen][AEF][2Nal][Thp]EN[Thp]-NH2; disulfide 2-7) | 2.2
7 | CCC(=O)NCCCC[C@H](NC(=O)C1(NC(=O)[C@H](Cc2ccc3ccccc3c2)NC(=O)[C@H](Cc2ccc(OCCN)cc2)NC(=O)[C@H]2NC(=O)[C@H](CCC(N)=O)NC(=O)[C@H](Cc3c[nH]c4ccccc34)NC(=O)[C@H]([C@@H](C)O)NC(=O)[C@H](CCC(N)=O)NC(=O)[C@@H](NC(=O)[C@@H](CCCNC(=N)N)NC(C)=O)C(C)(C)SSC2(C)C)CCOCC1)C(=O)N[C@@H](CC(N)=O)C(=O)NC1(C(N)=O)CCOCC1 [Compound 57, Ac-[(D)Arg]-[Pen]-Q-T-W-Q-[Pen]-Phe[4-(2-aminoethoxy)]-[2-Nal]-[THP]-[Lys(COEt)]-N-[THP]-NH2] | 18
8 | CC(=O)N[C@H](CCCNC(=N)N)C(=O)N[C@H]1CCSC[C@@H](C(=O)N[C@@H](Cc2ccc(OCCN)cc2)C(=O)N[C@@H](Cc2ccc3ccccc3c2)C(=O)NC2(C(=O)N[C@@](C)(CCC(=O)O)C(=O)N[C@@H](CC(N)=O)C(=O)N[C@@H](Cc3c[nH]c4ccc(F)cc34)C(N)=O)CCOCC2)NC(=O)[C@H](CCC(N)=O)NC(=O)[C@H](Cc2c[nH]c3ccccc23)NC(=O)[C@H]([C@@H](C)O)NC(=O)[C@H](CCC(N)=O)NC1=O [Compound 81, Ac-[(D)Arg]-[Abu]-Q-T-W-Q-[Cys]-Phe[4-(2-aminoethoxy)]-[2-Nal]-[THP]-[aMeGlu]-N-[W(5-F)]-NH2] | 30
9 | CC(=O)NCCCC[C@@H]1NC(=O)[C@H](Cc2c[nH]c3c(C)cccc23)NC(=O)[C@H]([C@@H](C)O)NC(=O)[C@H](CC(N)=O)NC(=O)[C@@H](NC(C)=O)C(C)(C)SSC(C)(C)[C@@H](C(=O)N[C@@H](Cc2ccc(OCCN)cc2)C(=O)N[C@@H](Cc2ccc3ccccc3c2)C(=O)NC2(C(=O)N[C@@H](CCCCNC(=O)C(C)(C)C)C(=O)N[C@@H](CC(N)=O)C(=O)N[C@@](C)(Cc3ccccc3)C(N)=O)CCOCC2)NC1=O [Compound 139, Ac-[Pen]-N-T-[W(7-Me)]-[Lys(Ac)]-[Pen]-Phe[4-(2-aminoethoxy)]-[2-Nal]-[THP]-[Lys(COtBu)]-N-[a-MePhe]-NH2] | 6.6
10 | CC(=O)N[C@H](CCCNC(=N)N)C(=O)N[C@H]1CCSC[C@@H](C(=O)N[C@@H](Cc2ccc(OCCN)cc2)C(=O)N[C@@H](Cc2ccc3ccccc3c2)C(=O)NC2(C(=O)N[C@@H](CCC(=O)O)C(=O)N[C@@H](CC(N)=O)C(=O)N[C@@H](Cc3ccccc3)C(N)=O)CCOCC2)NC(=O)[C@H](CCC(N)=O)NC(=O)[C@H](Cc2c[nH]c3ccccc23)NC(=O)[C@H]([C@@H](C)O)NC(=O)[C@H](CCC(N)=O)NC1=O [Compound 17, Ac-[(D)Arg]-[Abu]-Q-T-W-Q-[Cys]-Phe[4-(2-aminoethoxy)]-[2-Nal]-[THP]-E-N-F-NH2] | 3.4
11 | CC(=O)N[C@H](CCCNC(=N)N)C(=O)N[C@@H]1C(=O)N[C@@H](CC(N)=O)C(=O)N[C@@H]([C@@H](C)O)C(=O)N[C@@H](Cc2c[nH]c3c(C)cccc23)C(=O)N[C@@H](CCC(N)=O)C(=O)N[C@H](C(=O)N[C@@H](Cc2ccc(OCCN)cc2)C(=O)N[C@@H](Cc2ccc3ccccc3c2)C(=O)NC2(C(=O)N[C@@H](CCC(=O)O)C(=O)N[C@@H](CC(N)=O)C(=O)NC3(C(N)=O)CCOCC3)CCOCC2)C(C)(C)SSC1(C)C [Compound 90, Ac-[(D)Arg]-[Pen]-N-T-[W(7-Me)]-Q-[Pen]-Phe[4-(2-aminoethoxy)]-[2-Nal]-[THP]-E-N-[THP]-NH2] (Ac-[dR][Pen]NT[Trp(7-Me)]Q[Pen][AEF][2Nal][Thp]EN[Thp]-NH2; disulfide 2-7) | 3.7
12 | CC(=O)N[C@H](CCCNC(=N)N)C(=O)N[C@@H]1C(=O)N[C@@H](CC(N)=O)C(=O)N[C@@H]([C@@H](C)O)C(=O)N[C@@H](Cc2c[nH]c3c(C)cccc23)C(=O)N[C@@H](CCC(N)=O)C(=O)N[C@H](C(=O)N[C@@H](Cc2ccc(OCCN)cc2)C(=O)N[C@@H](Cc2ccc3ccccc3c2)C(=O)NC2(C(=O)N[C@@H](CCC(=O)O)C(=O)N[C@@H](CC(N)=O)C(=O)N[C@@](C)(Cc3ccccc3)C(N)=O)CCCC2)C(C)(C)SSC1(C)C [Compound 93, Ac-[(D)Arg]-[Pen]-N-T-[W(7-Me)]-Q-[Pen]-Phe[4-(2-aminoethoxy)]-[2-Nal]-[Acvc]-E-N-[a-MePhe]-NH2] (Ac-[dR][Pen]NT[Trp(7-Me)]Q[Pen][AEF][2Nal][Ac5c]EN[αMeF]-NH2; disulfide 2-7) | 4.6
13 | CC(=O)N[C@H](CCCNC(=N)N)C(=O)N[C@H]1CCSC[C@@H](C(=O)N[C@@H](Cc2ccc(OCCN)cc2)C(=O)N[C@@H](Cc2ccc3ccccc3c2)C(=O)NC2(C(=O)N[C@@](C)(CCC(=O)O)C(=O)N[C@@H](CC(N)=O)C(=O)N[C@@H](Cc3ccccc3)C(=O)NC(C)(C)C(=O)N[C@@](C)(CCCCN)C(N)=O)CCOCC2)NC(=O)[C@H](CCC(N)=O)NC(=O)[C@H](Cc2c[nH]c3ccccc23)NC(=O)[C@H]([C@@H](C)O)NC(=O)[C@H](CCC(N)=O)NC1=O [Compound 43, Ac-[(D)Arg]-[Abu]-Q-T-W-Q-[Cys]-Phe[4-(2-aminoethoxy)]-[2-Nal]-[THP]-[aMeGlu]-N-F-[Aib]-[a-MeLys]-NH2] (Ac-[dR][Abu(4-yl)]QTWQC[AEF][2Nal][Thp][αMeE]NF[Aib][αMeK]-NH2; thioether 2-7) | 8.2
14 | CC(=O)NCCCC[C@@H]1NC(=O)[C@H](Cc2c[nH]c3c(C)cccc23)NC(=O)[C@H]([C@@H](C)O)NC(=O)[C@H](CC(N)=O)NC(=O)[C@@H](NC(=O)[C@@H](CCCNC(=N)N)NC(C)=O)CSSC[C@@](C)(C(=O)N[C@@H](Cc2ccc(OCCN)cc2)C(=O)N[C@@H](Cc2ccc3ccccc3c2)C(=O)NC2(C(=O)N[C@@H](CCC(=O)O)C(=O)N[C@@H](CC(N)=O)C(=O)NC3(C(N)=O)CCOCC3)CC2)NC1=O [Compound 310, MeCO-r-C-N-T-7MeW-K(Ac)- aMeC-AEF-2Nal-Acpx-E-N-THP-CONH2] (Ac-[dR]CNT[Trp(7-Me)]K(Ac)[αMeC][AEF][2Nal][Ac3c]EN[Thp]-NH2; disulfide 2-7) | 9.9
